According to article PMC8689225, “Cardiac ryanodine receptor N-terminal region biosensors identify novel inhibitors via FRET-based high-throughput screening” (The Journal of Biological Chemistry, 2021):

Columns and labels:
human RyR2 = molecular target: T1, human RyR2 (Homo sapiens, UniProt Q92736); assay: [Ca2+]ER load in permeabilized HEK293 cells expressing GFP-hRyR2, mCer-SERCA2a, R-CEPIA1er; assay type: cell-based; conditions: compared to vehicle
T1 construct: expressed in transfected cells; host or cells: HEK293, transient co-transfection with mCer-SERCA2a and R-CEPIA1er
Procedure: The method for measuring of [Ca^2+]ER load-leak balance in HEK293 cells was previously described ([48]). Briefly, HEK293 cells were transiently cotransfected with plasmids encoding GFP-hRyR2, mCer-SERCA2a, and R-CEPIA1er cDNAs. After 48 h of protein expression, transfected cells were used for the confocal experiments. Before each measurement, cells were washed with a solution containing (in mM): 150 K-aspartate, 0.25 MgCl2, 0.1 EGTA, 10 HEPES, pH 7.2. Then, the cellular plasma membranes were permeabilized with 0.005% saponin dissolved in the experimental solution containing (in mM): K-aspartate 100; KCl 15; KH2PO4 5; MgATP 5; EGTA 0.35; CaCl2 0.22; MgCl2 0.75; HEPES 10; dextran (MW: 40,000) 2%, pH 7.2. Free [Ca^2+] and [Mg^2+] were set at 100 nM and 1 mM respectively. After 3 min of saponin incubation, the permeabilized cells were perfused with saponin-free experimental solution.
Changes in [Ca^2+]ER load-leak balance in permeabilized HEK293 cells were monitored using a laser scanning confocal microscope (Radiance 2000 MP, BioRad) equipped with a 40× oil objective lens (N.A. =1.3). […]
Cells were perfused with the experimental solution for 3 min to ensure a steady [Ca^2+]ER signal. […] Fmax was determined upon application of 2 μM ionomycin and 10 mM Ca^2+. Changes in [Ca^2+]ER were calculated according to [Ca^2+]ER = (F−Fmin)/(Fmax−Fmin).

NTR of mouse RyR2 = molecular target: T2, NTR of mouse RyR2 (Mus musculus, UniProt E9Q401); assay: Surface plasmon resonance with isolated NTR (His-MBP tag); assay type: binding
T2 construct: The NTR of mouse RyR2 (residues 1–547) was cloned and expressed as previously described; made in house; host or cells: Escherichia coli Rosetta (DE3) pLacI
T2 sequence (E9Q401 1-547): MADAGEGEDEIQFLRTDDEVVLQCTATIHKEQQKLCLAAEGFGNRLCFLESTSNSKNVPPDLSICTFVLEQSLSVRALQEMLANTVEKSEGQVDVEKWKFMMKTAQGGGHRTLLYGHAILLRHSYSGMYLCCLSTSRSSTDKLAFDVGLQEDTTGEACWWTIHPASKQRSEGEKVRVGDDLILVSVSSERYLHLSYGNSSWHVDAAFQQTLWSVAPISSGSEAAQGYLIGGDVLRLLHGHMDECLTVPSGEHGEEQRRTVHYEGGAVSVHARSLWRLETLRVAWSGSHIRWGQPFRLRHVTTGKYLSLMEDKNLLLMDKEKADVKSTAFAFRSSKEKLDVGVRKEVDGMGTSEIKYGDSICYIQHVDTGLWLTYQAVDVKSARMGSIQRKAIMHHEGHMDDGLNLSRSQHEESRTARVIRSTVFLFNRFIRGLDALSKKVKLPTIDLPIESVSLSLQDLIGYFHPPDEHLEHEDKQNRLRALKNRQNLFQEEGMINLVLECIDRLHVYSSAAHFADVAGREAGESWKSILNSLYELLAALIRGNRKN
Procedure: The SPR experiments were performed using a BIACORE S200 (GE Healthcare) equipped with a NTA sensor chip. NTR with His and MBP tags (>90% pure based on SDS-PAGE) was immobilized using affinity of the His tag to the sensor surface. The surfaces of the sensor chip were activated with 0.5 mM Ni^2+ solution at a flow rate of 10 μl/min. The NTR at a concentration of 30 μg/ml in 10 mM HEPES, 150 mM KCl, pH 7.4, was immobilized on flow cell 2; flow cell 1 was left blank to serve as a reference surface. To collect kinetic binding data, the hits in the running buffer (10 mM HEPES, 150 mM NaCl, 0.05% P20, pH 7.4, 1% DMSO) were injected over the two flow cells at concentrations of 1.5625, 3.125, 6.25, 12.5, 25, 50, and 100 μM at a flow rate of 30 μl/min and at a temperature of 25 °C. The complex was allowed to associate and dissociate for 60 and 60 s, respectively. The surfaces were regenerated with a 120 s injection of 350 mM EDTA. Data were collected at a rate of 1 Hz. The data were fit using the global data analysis option available within Biacore S200 Evaluation 1.0 software.

[1] = single-cycle kinetics, global analysis

T1 sequence (Q92736 whole entry): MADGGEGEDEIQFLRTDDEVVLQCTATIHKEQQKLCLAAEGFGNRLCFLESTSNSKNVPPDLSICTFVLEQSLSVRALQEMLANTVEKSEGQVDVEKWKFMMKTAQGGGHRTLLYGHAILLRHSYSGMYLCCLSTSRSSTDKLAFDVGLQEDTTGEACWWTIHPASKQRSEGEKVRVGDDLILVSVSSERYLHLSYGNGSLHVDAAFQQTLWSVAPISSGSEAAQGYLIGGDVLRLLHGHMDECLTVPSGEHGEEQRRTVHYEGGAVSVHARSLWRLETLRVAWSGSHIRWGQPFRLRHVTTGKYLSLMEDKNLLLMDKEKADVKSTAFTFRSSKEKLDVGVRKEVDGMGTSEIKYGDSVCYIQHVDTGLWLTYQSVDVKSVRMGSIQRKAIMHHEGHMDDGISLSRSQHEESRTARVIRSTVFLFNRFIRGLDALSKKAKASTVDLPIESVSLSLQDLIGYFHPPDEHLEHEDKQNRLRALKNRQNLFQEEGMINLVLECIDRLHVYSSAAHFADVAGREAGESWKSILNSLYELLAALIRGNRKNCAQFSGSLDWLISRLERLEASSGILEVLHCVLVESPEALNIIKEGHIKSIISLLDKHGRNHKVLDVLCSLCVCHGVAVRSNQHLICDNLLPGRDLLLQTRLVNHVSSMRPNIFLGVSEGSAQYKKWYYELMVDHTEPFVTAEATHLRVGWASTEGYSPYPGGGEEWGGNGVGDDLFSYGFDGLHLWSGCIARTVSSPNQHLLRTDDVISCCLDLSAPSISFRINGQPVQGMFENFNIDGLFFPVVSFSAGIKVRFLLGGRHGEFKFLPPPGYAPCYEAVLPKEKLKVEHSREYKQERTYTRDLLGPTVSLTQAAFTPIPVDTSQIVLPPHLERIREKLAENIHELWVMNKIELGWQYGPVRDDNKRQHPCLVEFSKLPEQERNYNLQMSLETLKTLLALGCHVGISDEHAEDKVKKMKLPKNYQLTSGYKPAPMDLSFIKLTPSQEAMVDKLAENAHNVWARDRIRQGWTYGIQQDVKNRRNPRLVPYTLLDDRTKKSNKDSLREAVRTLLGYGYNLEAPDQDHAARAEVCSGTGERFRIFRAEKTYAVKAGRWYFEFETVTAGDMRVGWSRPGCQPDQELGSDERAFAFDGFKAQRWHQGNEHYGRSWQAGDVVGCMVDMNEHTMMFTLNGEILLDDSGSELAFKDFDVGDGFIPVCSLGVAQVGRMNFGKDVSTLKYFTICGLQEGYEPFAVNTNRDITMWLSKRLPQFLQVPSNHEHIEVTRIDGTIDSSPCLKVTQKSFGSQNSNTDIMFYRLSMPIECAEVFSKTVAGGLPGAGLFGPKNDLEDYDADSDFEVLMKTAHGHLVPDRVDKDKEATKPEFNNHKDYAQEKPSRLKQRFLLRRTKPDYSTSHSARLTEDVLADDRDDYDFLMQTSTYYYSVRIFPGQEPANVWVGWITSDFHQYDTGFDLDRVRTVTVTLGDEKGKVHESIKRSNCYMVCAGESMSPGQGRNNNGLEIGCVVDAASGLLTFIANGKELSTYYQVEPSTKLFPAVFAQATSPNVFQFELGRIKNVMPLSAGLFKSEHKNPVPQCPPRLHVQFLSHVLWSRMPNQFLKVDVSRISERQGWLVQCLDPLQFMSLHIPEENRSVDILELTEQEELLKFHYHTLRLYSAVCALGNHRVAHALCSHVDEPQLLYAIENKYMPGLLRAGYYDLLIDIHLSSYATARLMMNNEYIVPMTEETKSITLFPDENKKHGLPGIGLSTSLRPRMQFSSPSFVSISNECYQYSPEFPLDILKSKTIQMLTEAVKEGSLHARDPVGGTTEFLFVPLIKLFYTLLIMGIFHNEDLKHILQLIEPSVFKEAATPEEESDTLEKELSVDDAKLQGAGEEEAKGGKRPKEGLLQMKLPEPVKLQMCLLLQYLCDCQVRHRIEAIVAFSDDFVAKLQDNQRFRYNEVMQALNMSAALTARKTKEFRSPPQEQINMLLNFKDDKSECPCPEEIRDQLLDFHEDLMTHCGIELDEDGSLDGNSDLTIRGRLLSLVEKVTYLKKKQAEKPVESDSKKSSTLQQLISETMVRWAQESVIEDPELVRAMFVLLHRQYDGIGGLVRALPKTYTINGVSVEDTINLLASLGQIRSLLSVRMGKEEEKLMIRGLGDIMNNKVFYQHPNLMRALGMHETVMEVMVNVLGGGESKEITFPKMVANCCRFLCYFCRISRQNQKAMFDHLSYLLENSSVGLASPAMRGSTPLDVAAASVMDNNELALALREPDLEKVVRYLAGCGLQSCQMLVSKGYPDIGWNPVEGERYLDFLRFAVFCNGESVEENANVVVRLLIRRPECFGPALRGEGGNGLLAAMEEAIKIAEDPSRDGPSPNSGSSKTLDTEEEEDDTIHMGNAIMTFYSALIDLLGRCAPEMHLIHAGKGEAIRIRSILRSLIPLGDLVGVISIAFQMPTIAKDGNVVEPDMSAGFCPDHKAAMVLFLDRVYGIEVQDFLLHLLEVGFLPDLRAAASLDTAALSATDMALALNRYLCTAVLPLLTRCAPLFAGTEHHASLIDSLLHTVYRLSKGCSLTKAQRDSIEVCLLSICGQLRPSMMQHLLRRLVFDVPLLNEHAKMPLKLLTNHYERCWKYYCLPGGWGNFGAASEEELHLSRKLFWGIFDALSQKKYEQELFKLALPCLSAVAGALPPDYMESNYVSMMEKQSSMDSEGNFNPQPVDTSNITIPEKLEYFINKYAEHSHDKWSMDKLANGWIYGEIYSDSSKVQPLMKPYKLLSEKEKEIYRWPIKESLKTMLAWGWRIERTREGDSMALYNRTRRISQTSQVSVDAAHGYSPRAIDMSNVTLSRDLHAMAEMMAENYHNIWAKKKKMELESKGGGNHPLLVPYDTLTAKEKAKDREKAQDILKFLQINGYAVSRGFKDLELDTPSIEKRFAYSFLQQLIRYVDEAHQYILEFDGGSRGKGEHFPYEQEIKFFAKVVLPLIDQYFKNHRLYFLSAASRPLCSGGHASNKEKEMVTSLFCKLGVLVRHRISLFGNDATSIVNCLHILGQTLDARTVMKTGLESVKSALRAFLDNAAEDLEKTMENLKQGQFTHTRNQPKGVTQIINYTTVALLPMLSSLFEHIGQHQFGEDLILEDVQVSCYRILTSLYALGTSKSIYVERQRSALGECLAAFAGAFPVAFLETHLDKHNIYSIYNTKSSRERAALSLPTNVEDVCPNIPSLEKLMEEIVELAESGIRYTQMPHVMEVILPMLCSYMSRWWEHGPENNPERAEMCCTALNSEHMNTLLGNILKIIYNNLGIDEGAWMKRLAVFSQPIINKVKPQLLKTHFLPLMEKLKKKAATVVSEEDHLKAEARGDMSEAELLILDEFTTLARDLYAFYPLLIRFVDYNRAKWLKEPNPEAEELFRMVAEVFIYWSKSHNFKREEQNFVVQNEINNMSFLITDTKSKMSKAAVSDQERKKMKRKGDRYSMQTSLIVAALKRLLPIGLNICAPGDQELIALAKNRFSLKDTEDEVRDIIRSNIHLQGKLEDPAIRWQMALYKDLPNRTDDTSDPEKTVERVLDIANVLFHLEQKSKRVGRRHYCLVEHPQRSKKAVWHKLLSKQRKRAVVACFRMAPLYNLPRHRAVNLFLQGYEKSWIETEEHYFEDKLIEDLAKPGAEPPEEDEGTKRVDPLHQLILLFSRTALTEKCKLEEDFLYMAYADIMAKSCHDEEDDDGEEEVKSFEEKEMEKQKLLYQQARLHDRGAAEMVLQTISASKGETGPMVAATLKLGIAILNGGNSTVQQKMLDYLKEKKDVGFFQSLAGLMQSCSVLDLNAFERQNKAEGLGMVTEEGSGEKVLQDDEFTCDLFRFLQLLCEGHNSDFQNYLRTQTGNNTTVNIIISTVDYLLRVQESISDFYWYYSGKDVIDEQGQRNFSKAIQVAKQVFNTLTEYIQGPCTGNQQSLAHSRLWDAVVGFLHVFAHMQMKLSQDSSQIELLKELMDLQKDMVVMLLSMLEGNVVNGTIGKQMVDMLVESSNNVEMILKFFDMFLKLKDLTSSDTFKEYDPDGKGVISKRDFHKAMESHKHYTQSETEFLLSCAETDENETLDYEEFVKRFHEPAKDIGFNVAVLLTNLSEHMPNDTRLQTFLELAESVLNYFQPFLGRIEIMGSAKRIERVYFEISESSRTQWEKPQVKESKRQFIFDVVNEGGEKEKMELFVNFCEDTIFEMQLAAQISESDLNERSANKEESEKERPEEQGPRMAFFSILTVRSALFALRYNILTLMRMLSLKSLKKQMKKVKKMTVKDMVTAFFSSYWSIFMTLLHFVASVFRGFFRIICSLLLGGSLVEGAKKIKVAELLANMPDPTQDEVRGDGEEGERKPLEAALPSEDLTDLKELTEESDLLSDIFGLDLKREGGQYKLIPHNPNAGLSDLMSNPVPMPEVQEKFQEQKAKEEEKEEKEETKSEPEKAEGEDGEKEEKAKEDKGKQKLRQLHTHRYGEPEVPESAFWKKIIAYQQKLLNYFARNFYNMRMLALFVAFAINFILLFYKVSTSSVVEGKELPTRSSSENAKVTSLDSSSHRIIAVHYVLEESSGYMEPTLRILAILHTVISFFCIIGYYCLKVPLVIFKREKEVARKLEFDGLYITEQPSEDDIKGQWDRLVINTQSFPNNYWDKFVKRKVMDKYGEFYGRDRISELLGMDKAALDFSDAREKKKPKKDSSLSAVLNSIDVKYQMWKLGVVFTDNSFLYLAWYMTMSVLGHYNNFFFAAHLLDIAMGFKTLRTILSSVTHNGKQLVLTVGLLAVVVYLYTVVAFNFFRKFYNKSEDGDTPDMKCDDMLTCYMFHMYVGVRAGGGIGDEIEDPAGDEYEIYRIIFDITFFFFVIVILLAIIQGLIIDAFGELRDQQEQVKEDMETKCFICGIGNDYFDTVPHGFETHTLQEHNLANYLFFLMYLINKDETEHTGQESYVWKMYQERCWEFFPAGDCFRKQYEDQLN

## CC(=O)O[C@H]1C[C@@]2(C)[C@@H](C[C@@H](O)[C@H]3[C@@]4(C)CC[C@@H](O)[C@@H](C)[C@@H]4CC[C@@]32C)/C1=C(\CCC=C(C)C)C(=O)O [FA, (2Z)-2-[(3R,4S,5S,8S,9S,10S,11R,13R,14S,16S)-16-acetyloxy-3,11-dihydroxy-4,8,10,14-tetramethyl-2,3,4,5,6,7,9,11,12,13,15,16-dodecahydro-1H-cyclopenta[a]phenanthren-17-ylidene]-6-methylhept-5-enoic acid]
Human RyR2; 5 μM FA
  [Ca2+]ER increase: 94 ± 17%
Human RyR2; 10 μM FA
  [Ca2+]ER decrease: 24 ± 8%
NTR of mouse RyR2; NTR with His-MBP tag
  KD (SPR): low micromolar
NTR of mouse RyR2; [1]
  KD (SPR), another component of heterogenous model fit: nanomolar
  KD (SPR), one component of heterogenous model fit: micromolar
